Where two headings read alike, the source gives them in different places.
Assays:
[1] = system: colon cancer cell line HT29; test: Cell proliferation assay using crystal violet, HT29; format: cell-based; settings: Homo sapiens, HT-29, n = 3, 24 h incubation
Method: (§1) For quantification, cells are treated with crystal violet, a dye that stains proteins. After washing away of excess dye, the remaining crystal violet is dissolved in a sodium citrate solution. The solution is analyzed photometrically at 590 nm. The optical density of this solution depends on the concentration of crystal violet and therefore on the amount of cells. […] To reduce effects of evaporation, only the inner 60 wells of 96-well plates (coated with 0.1% gelatine solution for studies with HUVEC) were used for experiments.
(§2) Cells were seeded at a density of 5 000 cells per well in 100 μl growth medium (HUVEC) or 20 000 (HCT116), 15 000 (SW480 and 518A2) or 10 000 (HT29) cells per well in 200 μl growth medium in 55 wells per plate. 5 wells were filled with medium only. Additionally, a 96-well plate with cells in 12 wells and medium in 6 wells was prepared as T0-plate. The next day, additional 98 μl of growth medium were added in every well (only HUVEC).
(§3) Cells were treated with 2 μl of the working solution 24 h after seeding. Final compound concentrations in the well were 10 μM for the first round of screening. The final DMSO concentration was 0.5%. […] After finishing the addition of compounds, the T0-plate was stained with crystal violet for giving the cell density at time point zero. Before staining, the growth medium was poured away. Wells were filled with 50 μl crystal violet solution for 10 min. Then the staining solution was washed away with water. Since crystal violet is environmentally hazardous the waste was collected and disposed in an appropriate manner. After air drying of the plates the crystal violet on the cells was dissolved in 100 μl of sodium citrate solution, and the absorption was measured with a plate reader at 590 nm.
Mean values were corrected with the absorption of stained medium and the corrected absorption of T0 cells. Cell growth was calculated relative to DMSO control for data comparison. IC50 values (50% inhibition of cell growth) were determined with GraphPad Prism® (Version 4.03) using nonlinear regression (sigmoidal dose-response with variable slope). […]

melanoma cell line 518A2 [2] = test: Cell proliferation assay using crystal violet, 518A2; format: cell-based; settings: Homo sapiens, 518A2; crystal violet assay; n = 3; 48 h incubation
Method: as §1, §2, §3
(§4) Mean values were corrected with the absorption of stained medium and the corrected absorption of T0 cells. Cell growth was calculated relative to DMSO control for data comparison. IC50 values (50% inhibition of cell growth) were determined with GraphPad Prism® (Version 4.03) using nonlinear regression (sigmoidal dose-response with variable slope).
(§5) Compounds showing an inhibition of proliferation of more than 50% at a concentration of 10 μM were defined as active, and their IC50-values were determined.

[3] = system: colon cancer cell line SW480; test: Cell proliferation assay using crystal violet, SW480; format: cell-based; settings: Homo sapiens, n = 3, 24 h incubation
Method: as §1, §2, §3, §4, §5

HCT116 cell line = test: Cell proliferation assay using crystal violet, HCT116; format: cell-based; settings: Homo sapiens, HCT-116, n = 3, 24 h incubation
Method: as §1, §2, §3
(§6) Mean values were corrected with the absorption of stained medium and the corrected absorption of T0 cells. Cell growth was calculated relative to DMSO control for data comparison.

HUVEC = test: Cell proliferation assay using crystal violet, HUVEC; format: cell-based; settings: Homo sapiens, n = 3, 48 h incubation, read-out: IC50 (nM) HUVEC (converted)
Method: as §1, §2, §3, §6

melanoma cell line 518A2 [4] = settings: stated as comparison, no experiment described; read-out: IC50 value of cisplatin, comparison for melanoma cell line 518A2; cited from earlier work
[5] = system: CLL cell lines MEC-1 and MEC-2; test: Annexin V-FITC / propidium iodide staining, apoptosis in CLL cell lines; format: cell-based; settings: MEC-1 cells, 500 nM, 48 hours (FIG. 4b); called an outlier, not seen after 24 hours
Method: Apoptosis was detected using propidium iodide/Annexin V FACS staining (Bender MedSystems).
Annexin V binds to phosphatidylserine which is exposed at the cell surface during execution of apoptosis. First, cells were seeded out at a density of 1.5 to 2.5 million cells per well in 12 well plates and then growth medium was added to each well to get a final volume of 2.5 ml. Compounds to be tested were diluted with medium from a 10 mM stock solution in DMSO to get different concentrations and cells were treated with 25 μl of these solutions. The final DMSO concentration was 0.5%. All treatments and controls were performed twice. Cells were incubated at 37° C. and 5% CO2 for 24 h and 48 h. Then, growth medium was removed by centrifugation, the supernatant discarded and 200 μl of an Annexin V solution were added. After 10 minutes in the dark, cells were washed once with Annexin buffer and the solution removed by centrifugation. The supernatant was discarded again and cells were suspended in 200 μl of a propidium iodide solution. Cells were measured by flow cytometry with a total of 10 000 events. Data were analyzed with CellQuest Pro™.
Compounds 1 and 22 were also tested on the CLL cell lines MEC-1 and MEC-2 in comparison with fludarabine and cyclophosphamide, two compounds used in the treatment of hematological malignancies (MEC-1 is a fludarabine-resistant cell line).

[6] = system: healthy peripheral blood mononuclear cells (PBMC); test: Effect on healthy PBMC (CellTiter-Blue viability); settings: 48 h incubation; one individual; FIG. 8
Method: FIG. 8: Effect of compounds 1 and 22 according to the invention as well as the control drugs fludarabine and cyclophosphamide on the viability of healthy peripheral blood mononuclear cells (PBMC) in suspension culture after 48 h incubation. Data points represent one individual calculated in relation to the control. Viability was measured using the CellTiter Blue assay (Promega, Madison, Wis., USA), and cells incubated in solvent only were used as control.
For quantification, cells were treated with resazurin (7-hydroxy-3H-phenoxazin-3-one 10-oxide) as indicator of cell viability. The method is based on the finding that living cells are able to reduce the non-fluorescent blue dye into the pink colored and highly red fluorescent resorufine. After adding the substrate the cells are incubated for 2 to 4 hours. Then, the solution is analyzed at 560 nm Ex/590 nm Em on a fluorometer. Appropriate cell density for seeding and duration of treatment with the substrate were determined in preliminary experiments.
First, cells were seeded in 96 well plates and then growth medium was added to each well to get a final volume of 80 μl. Compounds to be tested were diluted with medium from a 10 mM stock solution in DMSO to get different concentrations, and 20 μl of these solutions were added to the wells. The final DMSO concentration was 0.5%. All treatments and controls were performed in at least triplicates. Cells were incubated at 37° C. and 5% CO2 for 48 h. Then, 20 μl substrate solution was added to the wells, plates were incubated for 3 hours and analyzed.
The impact of the compounds according to the invention on healthy cells was assessed using peripheral blood mononuclear cells (PBMC). Cell viability was tested using the CellTiter-Blue Cell Viability Assay (Promega, Madison, Wis., USA) as described in Example 7.

SMILES	IC50 (HCT116 cell line)	IC50 (HUVEC)	also measured
COc1ccccc1/C=C/C=C/C(=O)c1cc(OC)c(O)c(OC)c1			IC50 [1]: 5790 nM; IC50 (melanoma cell line 518A2 [2]): 2750 nM; IC50 [3]: 2680 nM
COc1cc(C(=O)/C=C/C=C/c2ccccc2SC)cc(OC)c1OC			IC50 [1]: 240 nM; IC50 (melanoma cell line 518A2 [2]): 160 nM; IC50 [3]: 260 nM
COc1cc(C(=O)/C=C/C=C/c2ccccc2)cc(OC)c1OC	4340 nM		
COc1cccc(/C=C/C=C/C(=O)c2cc(OC)c(OC)c(OC)c2)c1	4500 nM	3210 nM	
COc1cc(C(=O)/C=C/C=C/c2ccccc2Cl)cc(OC)c1OC		1770 nM	
COc1cccc(/C=C/C=C/C(=O)c2ccccc2OC)c1	> 10000 nM	8810 nM	
COc1ccccc1/C=C/C=C/C(=O)c1ccc(Cl)c([N+](=O)[O-])c1		5630 nM	
C=Cc1ccccc1/C=C/C=C/C(=O)c1ccccc1OC	804 nM	760 nM	
CCOc1ccccc1C(=O)/C=C/c1ccc(OC)c2ccccc12			IC50 (melanoma cell line 518A2 [2]): > 10000 nM; IC50 [3]: > 10000 nM
COc1ccc(C(=O)/C=C/c2ccc(OC)c3ccccc23)cc1OC	> 10000 nM	> 10000 nM	
COc1ccccc1C(=O)/C=C/c1ccc(OC)c2ccccc12	6850 nM		
N.N.[Cl][Pt][Cl] [cisplatin]			IC50 (melanoma cell line 518A2 [4]): ~10 µM
O=P1(N(CCCl)CCCl)NCCCO1 (stereo not drawn) [cyclophosphamide, reference compound]			apoptosis induction [5]: 40%; viability of healthy PBMC in suspension culture (toxicity) [6]: did not influence viability
Nc1nc(F)nc2c1ncn2[C@@H]1O[C@H](CO)[C@@H](O)[C@@H]1O [fludarabine, reference compound]			viability of healthy PBMC in suspension culture (toxicity) [6]: the most toxic of the tested compounds

— patent US20130123367A1, “VINYLOGOUS CHALCONE DERIVATIVES AND THEIR MEDICAL USE” (MEDIZINISCHE UNIVERSITAT WIEN, priority 2010, published 2013)
